{"source": "patent US20180008665A1", "about": "“METHODS OF TREATING AND PREVENTING GOUT AND LEAD NEPHROPATHY” (priority 2016, published 2018)", "key": {"[1]": {"conditions": "initiation during an acute gout attack, 57 men with crystal-proven gout; cited from earlier work"}, "[2]": {"method": "(§1) Each tablet contains 450 mg of pharmaceutical grade of GSH powder.\n(§2) Seven (7) subjects with gout and hyperuricemia were examined. Specifically, these seven subjects were part of an open-label, twelve (12) weeks study in which they received 2700 mg daily (450 mg/tablet, 2 tablets/time, 3 times/day) of (2S)-2-Amino-4-{[(1R)-1-[(carboxymethyl)carbamoyl]-2-sulfanylethyl]carbamoyl}butanoic acid (hereinafter “CT° 1”).\nAll of the subjects were classified as renally impaired (glomerular filtration rate <80 ml/minute). A serum creatinine test measures the level of creatinine in the blood and provides an estimate of glomerular filtration rate that indicates the excretory function of the kidney. If the kidney functions improperly, an increased level of creatinine may accumulate in the blood."}, "[3]": {"method": "as §1, §2", "remark": "listed apart in the source"}, "[4]": {"conditions": "in vivo; cited from earlier work"}, "[5]": {"conditions": "after 12 weeks of treatment versus first visit, 2700 mg daily oral"}}}
{"molecule": "Oc1ncnc2[nH]ncc12", "note": "[allopurinol]", "values": [{"measurement": "effect on daily pain, recurrent flares, or inflammatory markers", "setting": "[1]", "value": "no significant difference"}]}
{"molecule": "N[C@@H](CCC(=O)N[C@@H](CS)C(=O)NCC(=O)O)C(=O)O", "note": "[CT°I, (2S)-2-Amino-4-{[(1R)-1-[(carboxymethyl)carbamoyl]-2-sulfanylethyl]carbamoyl}butanoic acid]", "values": [{"measurement": "mean serum creatinine after 12 weeks of treatment", "setting": "[2]; 7 subjects, 2700 mg daily oral, 12 weeks, first visit 135.29±6.89 μmol/L", "value": "99.00 ± 4.45", "unit": "µmol/L"}, {"measurement": "reduction of serum creatinine", "setting": "[2]; [5]", "value": 26.82, "unit": "%"}, {"measurement": "significance of the reduction of serum creatinine", "setting": "[2]; p<0.05, 2700 mg daily oral", "value": "significantly different after 8 weeks of treatment"}, {"measurement": "mean blood lead level after 12 weeks of treatment", "setting": "[3]; 7 subjects, 2700 mg daily oral, 12 weeks, first visit 49.90±8.41 μg/dL", "value": "37.26 ± 6.29", "unit": "µg/dL"}, {"measurement": "mean serum urate after 12 weeks of treatment", "setting": "[3]; 7 subjects, 2700 mg daily oral, 12 weeks, first visit 521.07±40.11 mg/L", "value": "346.46 ± 21.17", "unit": "mg/L"}, {"measurement": "reduction of blood lead level", "setting": "[3]; [5]", "value": 25.33, "unit": "%"}, {"measurement": "reduction of serum urate", "setting": "[3]; [5]", "value": 33.51, "unit": "%"}, {"measurement": "significance of the reduction of blood lead level", "setting": "[3]; p<0.05, 2700 mg daily oral", "value": "significantly different after 12 weeks of treatment"}, {"measurement": "significance of the reduction of serum urate", "setting": "[3]; p<0.05, 2700 mg daily oral", "value": "significantly different after 8 weeks of treatment"}]}
{"molecule": "COc1cc2c(c(OC)c1OC)-c1ccc(OC)c(=O)cc1[C@@H](NC(C)=O)CC2", "note": "[colchicine]", "values": [{"measurement": "part of the dose excreted unchanged by the kidney", "setting": "[4]", "value": "10-20%"}, {"measurement": "removal by hemodialysis", "setting": "[4]", "value": "not removable by hemodialysis"}]}
